Experimental data from patent publication US20020031782A1, “Mycobacterium tuberculosis CYP51 high resolution structure, polypeptides and nucleic acids, and therapeutic and screening methods relating to same” (priority 1999, published 2002).
Like-named read-outs stand apart in the source and are kept apart here.

Columns and labels:
[1] = target: T1, MT P45014DM (Mycobacterium tuberculosis, UniProt P9WPP9); assay: biochemical; format: binding; set-up: DNA segments encoding full length proteins preferably have a coding length on the order of about 1353 nucleotides; made in house; host or cells: E. coli HMS174, vector pet17b; conditions: for Kd: type I substrate-induced difference spectrum, 10 μM MT P45014DM, read-out: Ks value (binding constant), substrate
T1 sequence (P9WPP9 1-451): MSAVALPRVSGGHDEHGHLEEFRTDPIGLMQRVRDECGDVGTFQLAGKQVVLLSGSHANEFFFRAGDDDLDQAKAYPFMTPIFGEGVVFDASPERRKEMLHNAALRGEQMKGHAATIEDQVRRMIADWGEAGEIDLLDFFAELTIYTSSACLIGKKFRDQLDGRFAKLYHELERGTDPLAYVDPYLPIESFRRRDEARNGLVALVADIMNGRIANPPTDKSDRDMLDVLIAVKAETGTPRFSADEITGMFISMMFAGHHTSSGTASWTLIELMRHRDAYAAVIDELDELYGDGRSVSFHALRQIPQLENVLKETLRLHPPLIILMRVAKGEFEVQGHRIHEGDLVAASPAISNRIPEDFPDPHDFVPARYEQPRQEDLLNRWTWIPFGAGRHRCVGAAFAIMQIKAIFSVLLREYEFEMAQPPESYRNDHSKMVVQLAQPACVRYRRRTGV

[2] = target: T1, MT P45014DM; assay: Reconstituted catalytic activity: sterol 14α-demethylation by MT P45014DM; format: biochemical; set-up: DNA segments encoding full length proteins preferably have a coding length on the order of about 1353 nucleotides; made in house; host or cells: E. coli HMS174, vector pet17b
[3] = target: T1, MT P45014DM; assay: biochemical; format: binding; set-up: DNA segments encoding full length proteins preferably have a coding length on the order of about 1353 nucleotides; made in house; host or cells: E. coli HMS174, vector pet17b
[4] = test system: MT H37RA; assay: Effect of azole inhibitors on growth of MT; format: cell-based, Mycobacterium tuberculosis
Description: The characterization of the CYP51 enzyme of the present invention in MT leads to the analysis of the function of this enzyme in the disease tuberculosis and of whether this enzyme represents a new drug target for the treatment of tuberculosis. Particularly, the effects of three azole inhibitors on the growth of MT H37RA, an alternated strain of MTH37R which is the pathogenic strain whose genomic sequence was determined by Cole et al., (1998) Nature […]:537-544 (bacterial strains provided by Dr. Dean Crick at Colorado State University) were examined.
As contemplated by applicants in accordance with the present invention, it was observed that ketoconazole has a profound effect on the growth of MT, stopping growth at about a 25 μM concentration. […] The targeting of ketoconazole to P45014DM in MT also leads to the identification of additional specific azole inhibitors which have far greater specificity for the MT CYP45014DM enzyme as compared to the human CYP45014DM enzyme. Such inhibitors therefore will have fewer side effects than less specific inhibitors. Thus, as described above, a method of screening for highly specific inhibitors of MT CYP45014DM in accordance with the screening methods described herein above comprises another aspect of the present invention.

[5] = target: maize microsomes; conditions: Salmon et al. 1992; read-out: binding constant estimated for maize microsomes; cited from earlier work
[6] = target: T2, bovine 17α-hydroxylase P450 (bC17) (Bos taurus, UniProt P05185); assay: CO-based reduction of 17α-hydroxylase P450 by electron donors (control); format: biochemical; conditions: compared to 100% determined by sodium hydrosulfite
T2 sequence (P05185 1-509): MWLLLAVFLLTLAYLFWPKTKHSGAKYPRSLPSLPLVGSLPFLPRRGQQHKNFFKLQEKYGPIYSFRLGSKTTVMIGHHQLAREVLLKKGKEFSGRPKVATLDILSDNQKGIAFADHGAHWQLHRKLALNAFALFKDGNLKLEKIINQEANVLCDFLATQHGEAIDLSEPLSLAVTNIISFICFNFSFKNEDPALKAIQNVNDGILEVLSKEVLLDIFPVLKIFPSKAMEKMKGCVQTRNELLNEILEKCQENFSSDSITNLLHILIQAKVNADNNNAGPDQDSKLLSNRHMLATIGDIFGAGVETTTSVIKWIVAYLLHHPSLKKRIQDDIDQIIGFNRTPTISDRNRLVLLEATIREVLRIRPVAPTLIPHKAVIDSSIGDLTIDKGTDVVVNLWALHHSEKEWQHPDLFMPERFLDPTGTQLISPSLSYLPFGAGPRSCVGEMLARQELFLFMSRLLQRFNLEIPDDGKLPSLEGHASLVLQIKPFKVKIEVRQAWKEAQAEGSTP

[7] = target: T1, MT P45014DM; conditions: compared to 100% determined by sodium hydrosulfite
[8] = target: T3, cholesterol side chain cleavage P450 (SCC) (Bos taurus, UniProt P00189); assay: CO-based reduction of cholesterol side chain cleavage P450 by electron donor (control); format: biochemical, bovine; conditions: compared to 100% determined by sodium hydrosulfite
T3 sequence (P00189 40-520): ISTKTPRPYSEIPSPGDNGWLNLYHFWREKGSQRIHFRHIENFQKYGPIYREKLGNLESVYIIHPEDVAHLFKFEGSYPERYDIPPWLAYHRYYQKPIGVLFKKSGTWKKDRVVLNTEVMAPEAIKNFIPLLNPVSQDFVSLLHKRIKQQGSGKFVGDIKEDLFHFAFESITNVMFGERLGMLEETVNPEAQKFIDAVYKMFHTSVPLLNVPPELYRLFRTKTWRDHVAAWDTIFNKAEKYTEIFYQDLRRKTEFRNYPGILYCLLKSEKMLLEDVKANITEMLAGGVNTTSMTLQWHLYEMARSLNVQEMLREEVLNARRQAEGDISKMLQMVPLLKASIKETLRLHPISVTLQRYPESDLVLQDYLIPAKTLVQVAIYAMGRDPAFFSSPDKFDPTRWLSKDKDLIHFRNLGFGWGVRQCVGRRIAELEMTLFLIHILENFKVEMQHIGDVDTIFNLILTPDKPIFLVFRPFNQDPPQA

C=C(CC[C@@H](C)[C@H]1CC[C@@]2(C)C3=C(CC[C@]12C)[C@@]1(C)CC[C@H](O)C(C)(C)[C@@H]1CC3)C(C)C [24-methylene-dihydrolanosterol]
sterol binding to the enzyme (yes/no) [1]: did not bind

CC(C)CCC[C@@H](C)[C@H]1CC[C@@]2(C)C3=C(CC[C@]12C)[C@@]1(C)CC[C@H](O)C(C)(C)[C@@H]1CC3 [DHL, 24,25-dihydrolanosterol]
Total product recovered from the quenched reaction mixtures [2]: 20% | sterol binding to the enzyme (yes/no) [1]: binds | Kd [1]: ~1000 nM

C=C(CC[C@@H](C)[C@H]1CC[C@@]2(C)C3=C(CC[C@]12C)[C@@]1(C)CC[C@H](O)[C@@H](C)[C@@H]1CC3)C(C)C [obtusifoliol]
Total product recovered from the quenched reaction mixtures [2]: 98% | sterol binding to the enzyme (yes/no) [1]: binds | Kd [1]: 350 ± 150 nM

CC(C)=CCC[C@@H](C)[C@H]1CC[C@H]2C3=C(CC[C@]12C)[C@@]1(C)CC[C@H](O)C[C@@H]1CC3 [zymosterol, 4,4,14-tridesmethyl lanosterol]
sterol binding to the enzyme (yes/no) [1]: Neither parkeol, cycloartenol, nor zymosterol (FIG. 3A) were found to bind

CC(C)=CCC[C@@H](C)[C@H]1CC[C@@]2(C)[C@@H]3CC[C@H]4C(C)(C)[C@@H](O)CC[C@@]45C[C@@]35CC[C@]12C [cycloartenol]
sterol binding to the enzyme (yes/no) [1]: Neither parkeol, cycloartenol, nor zymosterol (FIG. 3A) were found to bind

CC(=O)N1CCN(c2ccc(OCC3COC(Cn4ccnc4)(c4ccc(Cl)cc4Cl)O3)cc2)CC1 (stereo not shown) [ketoconazole]
Kd [3]: ~5000 nM | concentration stopping growth of MT [4]: ~25 µM | inhibition of the 14α-demethylation of DHL [2]: inhibit | Kd [5]: 10000 nM

CC(C)=CCC[C@@H](C)[C@H]1CC[C@@]2(C)C3=C(CC[C@]12C)[C@@]1(C)CC[C@H](O)C(C)(C)[C@@H]1CC3 [lanosterol]
Total product recovered from the quenched reaction mixtures [2]: 1% | sterol binding to the enzyme (yes/no) [1]: binds | Kd [1]: ~1000 nM

CC(C)=CCC[C@@H](C)[C@H]1CC[C@@]2(C)[C@@H]3CC[C@H]4C(C)(C)[C@@H](O)CC[C@]4(C)C3=CC[C@]12C [parkeol]
sterol binding to the enzyme (yes/no) [1]: Neither parkeol, cycloartenol, nor zymosterol (FIG. 3A) were found to bind

B1: Fld/Fdr: E. coli flavodoxin/flavodoxin reductase two-component electron donor system (protein, UniProt P61949 2-176; P28861 2-248, looked up)
Flavodoxin 1: AITGIFFGSDTGNTENIAKMIQKQLGKDVADVHDIAKSSKEDLEAYDILLLGIPTWYYGEAQCDWDDFFPTLEEIDFNGKLVALFGCGDQEDYAEYFCDALGTIRDIIEPRGATIVGHWPTAGYHFEASKGLADDDHFVGLAIDEDRQPELTAERVEKWVKQISEELHLDEILNA
Flavodoxin/ferredoxin--NADP …: ADWVTGKVTKVQNWTDALFSLTVHAPVLPFTAGQFTKLGLEIDGERVQRAYSYVNSPDNPDLEFYLVTVPDGKLSPRLAALKPGDEVQVVSEAAGFFVLDEVPHCETLWMLATGTAIGPYLSILQLGKDLDRFKNLVLVHAARYAADLSYLPLMQELEKRYEGKLRIQTVVSRETAAGSLTGRIPALIESGELESTIGLPMNKETSHVMLCGNPQMVRDTQQLLKETRQMTKHLRRRPGHMTAEHYW
reduction of bC17 (reduced-CO spectrum) [6]: 77%

B2: Adx/Adr: bovine adrenodoxin/adrenodoxin reductase electron donor system (protein, UniProt P00257 59-186; P08165 33-492, looked up)
Adrenodoxin, mitochondrial: SSSEDKITVHFINRDGETLTTKGKIGDSLLDVVVQNNLDIDGFGACEGTLACSTCHLIFEQHIFEKLEAITDEENDMLDLAYGLTDRSRLGCQICLTKAMDNMTVRVPDAVSDARESIDMGMNSSKIE
NADPH:adrenodoxin …: STQEQTPQICVVGSGPAGFYTAQHLLKHHSRAHVDIYEKQLVPFGLVRFGVAPDHPEVKNVINTFTQTARSDRCAFYGNVEVGRDVTVQELQDAYHAVVLSYGAEDHQALDIPGEELPGVFSARAFVGWYNGLPENRELAPDLSCDTAVILGQGNVALDVARILLTPPDHLEKTDITEAALGALRQSRVKTVWIVGRRGPLQVAFTIKELREMIQLPGTRPMLDPADFLGLQDRIKEAARPRKRLMELLLRTATEKPGVEEAARRASASRAWGLRFFRSPQQVLPSPDGRRAAGIRLAVTRLEGIGEATRAVPTGDVEDLPCGLVLSSIGYKSRPIDPSVPFDPKLGVVPNMEGRVVDVPGLYCSGWVKRGPTGVITTTMTDSFLTGQILLQDLKAGHLPSGPRPGSAFIKALLDSRGVWPVSFSDWEKLDAEEVSRGQASGKPREKLLDPQEMLRLLGH
modifications: two-protein electron donor system
reduction of MT P45014DM (reduced-CO spectrum) [7]: n.r. | reduction of SCC (reduced-CO spectrum) [8]: 80%

B3: rat P450 reductase: rat microsomal NADPH cytochrome P450 reductase (protein, UniProt P00388 2-678, looked up)
NADPH--cytochrome P450 …: GDSHEDTSATMPEAVAEEVSLFSTTDMVLFSLIVGVLTYWFIFRKKKEEIPEFSKIQTTAPPVKESSFVEKMKKTGRNIIVFYGSQTGTAEEFANRLSKDAHRYGMRGMSADPEEYDLADLSSLPEIDKSLVVFCMATYGEGDPTDNAQDFYDWLQETDVDLTGVKFAVFGLGNKTYEHFNAMGKYVDQRLEQLGAQRIFELGLGDDDGNLEEDFITWREQFWPAVCEFFGVEATGEESSIRQYELVVHEDMDVAKVYTGEMGRLKSYENQKPPFDAKNPFLAAVTANRKLNQGTERHLMHLELDISDSKIRYESGDHVAVYPANDSALVNQIGEILGADLDVIMSLNNLDEESNKKHPFPCPTTYRTALTYYLDITNPPRTNVLYELAQYASEPSEQEHLHKMASSSGEGKELYLSWVVEARRHILAILQDYPSLRPPIDHLCELLPRLQARYYSIASSSKVHPNSVHICAVAVEYEAKSGRVNKGVATSWLRAKEPAGENGGRALVPMFVRKSQFRLPFKSTTPVIMVGPGTGIAPFMGFIQERAWLREQGKEVGETLLYYGCRRSDEDYLYREELARFHKDGALTQLNVAFSREQAHKVYVQHLLKRDREHLWKLIHEGGAHIYVCGDARNMAKDVQNTFYDIVAEFGPMEHTQAVDYVKKLMTKGRYSLDVWS
reduction of bC17 (reduced-CO spectrum) [6]: 73% | reduction of MT P45014DM (reduced-CO spectrum) [7]: n.r.
